Here are results for 4 compounds from PubChem BioAssay (NCI).

Structures are written as SMILES.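 Dose response: 5 concentrations. Exposure: 48 h. Format: 96-well plates. Endpoint: linear interpolation; highest concentration if not reached. Definition used: TGI = concentration required for complete inhibition of growth.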

In one experiment the test system is CCRF-CEM leukemia. Nature of the experiment: NCI-60 cell line screen, 48 h.
Regarding `O=C1C=CC(=Nc2ccc3c(c2)C(Br)c2ccccc2-3)O1` (configuration not stated), the TGI was over 100 µM.

For `CN(CCC#N)c1ccc(/C=C2\SC(=S)NC2=O)cc1`, the TGI was over 100 µM.

The next experiment concerns NCI-H23 lung. Nature of the experiment: NCI-60 cell line screen, 48 h.
In turn, `CC1=C(C(=O)Nc2ccc([N+](=O)[O-])cc2)C(c2ccc(N(C)C)cc2)C(C(=O)Nc2ccc([N+](=O)[O-])cc2)=C(C)N1` registered a TGI of 52.8 µM.

The compound `O=C1C=CC(=Nc2ccc3c(c2)C(Br)c2ccccc2-3)O1` (configuration not stated) gave a TGI of over 100 µM.

In turn, `CN(CCC#N)c1ccc(/C=C2\SC(=S)NC2=O)cc1` showed a TGI of over 100 µM.

A further experiment concerns LOX IMVI melanoma. Briefly: NCI-60 cell line screen, 48 h.
In turn, `Nc1ccc2nc(-c3ccccn3)c(-c3ccccn3)nc2c1` returned a TGI of over 100 µM.

`CC1=C(C(=O)Nc2ccc([N+](=O)[O-])cc2)C(c2ccc(N(C)C)cc2)C(C(=O)Nc2ccc([N+](=O)[O-])cc2)=C(C)N1` returned a TGI of 23.5 µM.

On to `O=C1C=CC(=Nc2ccc3c(c2)C(Br)c2ccccc2-3)O1` (configuration not stated), for which the TGI is over 100 µM.

`CN(CCC#N)c1ccc(/C=C2\SC(=S)NC2=O)cc1` showed a TGI of 36.2 µM.

In the next experiment the test system is RPMI-8226 leukemia. Briefly: NCI-60 cell line screen, 48 h.
On to `Nc1ccc2nc(-c3ccccn3)c(-c3ccccn3)nc2c1`, for which the TGI was over 100 µM.

`CC1=C(C(=O)Nc2ccc([N+](=O)[O-])cc2)C(c2ccc(N(C)C)cc2)C(C(=O)Nc2ccc([N+](=O)[O-])cc2)=C(C)N1` registered a TGI of 43.2 µM.

For the compound `O=C1C=CC(=Nc2ccc3c(c2)C(Br)c2ccccc2-3)O1` (configuration not stated), the TGI is over 100 µM.

Turning to `CN(CCC#N)c1ccc(/C=C2\SC(=S)NC2=O)cc1`, the TGI was over 100 µM.

The next experiment concerns M19-MEL melanoma. Nature of the experiment: NCI-60 cell line screen, 48 h.
For `CC1=C(C(=O)Nc2ccc([N+](=O)[O-])cc2)C(c2ccc(N(C)C)cc2)C(C(=O)Nc2ccc([N+](=O)[O-])cc2)=C(C)N1`, the TGI turned out to be 33.2 µM.

As for `O=C1C=CC(=Nc2ccc3c(c2)C(Br)c2ccccc2-3)O1` (configuration not stated), the TGI is over 100 µM.

The next experiment deals with OVCAR-8 ovarian. Nature of the experiment: NCI-60 cell line screen, 48 h.
In turn, `Nc1ccc2nc(-c3ccccn3)c(-c3ccccn3)nc2c1` showed a TGI of over 100 µM.

Consider `CC1=C(C(=O)Nc2ccc([N+](=O)[O-])cc2)C(c2ccc(N(C)C)cc2)C(C(=O)Nc2ccc([N+](=O)[O-])cc2)=C(C)N1`, for which the TGI came out at 97.9 µM.

`O=C1C=CC(=Nc2ccc3c(c2)C(Br)c2ccccc2-3)O1` (configuration not stated) registered a TGI of over 100 µM.

The compound `CN(CCC#N)c1ccc(/C=C2\SC(=S)NC2=O)cc1` had a TGI of over 100 µM.

A further experiment concerns UO-31 renal. Briefly: NCI-60 cell line screen, 48 h.
As to `Nc1ccc2nc(-c3ccccn3)c(-c3ccccn3)nc2c1`, the TGI is over 100 µM.

Regarding `CC1=C(C(=O)Nc2ccc([N+](=O)[O-])cc2)C(c2ccc(N(C)C)cc2)C(C(=O)Nc2ccc([N+](=O)[O-])cc2)=C(C)N1`, the TGI was over 100 µM.

`O=C1C=CC(=Nc2ccc3c(c2)C(Br)c2ccccc2-3)O1` (configuration not stated) displayed a TGI of over 100 µM.

`CN(CCC#N)c1ccc(/C=C2\SC(=S)NC2=O)cc1`: the TGI is over 100 µM.

The subject of a further experiment is LXFL 529 NSCLC. Briefly: NCI-60 cell line screen, 48 h.
With `CC1=C(C(=O)Nc2ccc([N+](=O)[O-])cc2)C(c2ccc(N(C)C)cc2)C(C(=O)Nc2ccc([N+](=O)[O-])cc2)=C(C)N1`, the TGI was found to be 71.4 µM.

In the case of `O=C1C=CC(=Nc2ccc3c(c2)C(Br)c2ccccc2-3)O1` (configuration not stated), the TGI was over 100 µM.

For the next experiment, the system named is COLO 205 colon. Briefly: NCI-60 cell line screen, 48 h.
The compound `Nc1ccc2nc(-c3ccccn3)c(-c3ccccn3)nc2c1` yielded a TGI of over 100 µM.

For `CC1=C(C(=O)Nc2ccc([N+](=O)[O-])cc2)C(c2ccc(N(C)C)cc2)C(C(=O)Nc2ccc([N+](=O)[O-])cc2)=C(C)N1`, the TGI amounted to 33.7 µM.

As to `O=C1C=CC(=Nc2ccc3c(c2)C(Br)c2ccccc2-3)O1` (configuration not stated), the TGI was over 100 µM.

`CN(CCC#N)c1ccc(/C=C2\SC(=S)NC2=O)cc1` came in with a TGI of over 100 µM.

For a further experiment, the system named is SF-295 CNS. Briefly: NCI-60 cell line screen, 48 h.
`Nc1ccc2nc(-c3ccccn3)c(-c3ccccn3)nc2c1` came in with a TGI of over 100 µM.

Consider `CC1=C(C(=O)Nc2ccc([N+](=O)[O-])cc2)C(c2ccc(N(C)C)cc2)C(C(=O)Nc2ccc([N+](=O)[O-])cc2)=C(C)N1`, for which the TGI is 74.6 µM.

In turn, `O=C1C=CC(=Nc2ccc3c(c2)C(Br)c2ccccc2-3)O1` (configuration not stated) had a TGI of over 100 µM.

`CN(CCC#N)c1ccc(/C=C2\SC(=S)NC2=O)cc1`: the TGI is over 100 µM.

The test system of a further experiment is DMS 114 small cell lung. Briefly: NCI-60 cell line screen, 48 h.
The compound `O=C1C=CC(=Nc2ccc3c(c2)C(Br)c2ccccc2-3)O1` (configuration not stated) returned a TGI of over 100 µM.

For another experiment, the system named is SK-MEL-5 melanoma. Briefly: NCI-60 cell line screen, 48 h.
For `Nc1ccc2nc(-c3ccccn3)c(-c3ccccn3)nc2c1`, the TGI is over 100 µM.

Compound `CC1=C(C(=O)Nc2ccc([N+](=O)[O-])cc2)C(c2ccc(N(C)C)cc2)C(C(=O)Nc2ccc([N+](=O)[O-])cc2)=C(C)N1` gave a TGI of 32.1 µM.

On to `CN(CCC#N)c1ccc(/C=C2\SC(=S)NC2=O)cc1`, for which the TGI was over 100 µM.

A further experiment concerns OVCAR-5 ovarian. Nature of the experiment: NCI-60 cell line screen, 48 h.
In the case of `Nc1ccc2nc(-c3ccccn3)c(-c3ccccn3)nc2c1`, the TGI was over 100 µM.

Take `CC1=C(C(=O)Nc2ccc([N+](=O)[O-])cc2)C(c2ccc(N(C)C)cc2)C(C(=O)Nc2ccc([N+](=O)[O-])cc2)=C(C)N1`: the TGI came to 67 µM.

`CN(CCC#N)c1ccc(/C=C2\SC(=S)NC2=O)cc1` registered a TGI of over 100 µM.

Another experiment concerns 786-0 renal. Nature of the experiment: NCI-60 cell line screen, 48 h.
In turn, `Nc1ccc2nc(-c3ccccn3)c(-c3ccccn3)nc2c1` displayed a TGI of over 100 µM.

Compound `CC1=C(C(=O)Nc2ccc([N+](=O)[O-])cc2)C(c2ccc(N(C)C)cc2)C(C(=O)Nc2ccc([N+](=O)[O-])cc2)=C(C)N1` yielded a TGI of 57.6 µM.

As for `O=C1C=CC(=Nc2ccc3c(c2)C(Br)c2ccccc2-3)O1` (configuration not stated), the TGI was over 100 µM.

On to `CN(CCC#N)c1ccc(/C=C2\SC(=S)NC2=O)cc1`, for which the TGI is over 100 µM.

For a further experiment, the system named is MALME-3M melanoma. Nature of the experiment: NCI-60 cell line screen, 48 h.
Turning to `Nc1ccc2nc(-c3ccccn3)c(-c3ccccn3)nc2c1`, the TGI is over 100 µM.

Take `CC1=C(C(=O)Nc2ccc([N+](=O)[O-])cc2)C(c2ccc(N(C)C)cc2)C(C(=O)Nc2ccc([N+](=O)[O-])cc2)=C(C)N1`: the TGI worked out at 52.6 µM.

In turn, `O=C1C=CC(=Nc2ccc3c(c2)C(Br)c2ccccc2-3)O1` (configuration not stated) came in with a TGI of over 100 µM.

As to `CN(CCC#N)c1ccc(/C=C2\SC(=S)NC2=O)cc1`, the TGI is over 100 µM.

Another experiment relates to NCI-H460 lung. Briefly: NCI-60 cell line screen, 48 h.
As to `Nc1ccc2nc(-c3ccccn3)c(-c3ccccn3)nc2c1`, the TGI is over 100 µM.

The compound `CC1=C(C(=O)Nc2ccc([N+](=O)[O-])cc2)C(c2ccc(N(C)C)cc2)C(C(=O)Nc2ccc([N+](=O)[O-])cc2)=C(C)N1` yielded a TGI of 45.3 µM.

For the compound `O=C1C=CC(=Nc2ccc3c(c2)C(Br)c2ccccc2-3)O1` (configuration not stated), the TGI was over 100 µM.

`CN(CCC#N)c1ccc(/C=C2\SC(=S)NC2=O)cc1` returned a TGI of over 100 µM.
